# Measurements: US20210137945A1, “METHOD FOR TREATING A CANCER ASSOCIATED WITH THE ACTIVATION OF GALECTIN-1” (TRINEO BIOTECHNOLOGY CO. LTD, priority 2019, published 2021)
# Legend:
# Assay type in all cases: cell-based
# [1] = test system: myeloma ARH-77 cells; test: MTT assay of myeloma ARH-77 cells treated with chemotherapeutic drugs alone or combined; conditions: for IC50: ARH-77 cells, chemotherapeutic agent alone (control)
# Method: (§1) Ovarian cancer cell ES-2 and myeloma cell line ARH-77 were used in the present disclosure. Cells was cultured and maintained in Dulbecco's modified Eagle media (DMEM) supplemented with 10% fetal bovine serum (FBS), 100 IU/ml penicillin, […] streptomycin, 2 mM glutamine, non-essential amino acids and sodium pyruvate in 5% CO2 at 37° C. Cells were grown and maintained in Petri dishes (each was 10 cm in diameter) until they reached 80% confluence, and then were subject to cell passages. Briefly, cells were first washed with phosphate buffer solution (PBS, 3 ml) once, then treated with 0.05% Trypsin/0.025% EDTA solution (1 mL) for 5 min so that the attached cells become suspended. The suspended cells were harvested and 2 mL fresh culture media were added therein to neutralize any remaining activity of trypsin. Cell density was adjusted by adding appropriate amounts of culture medium to the cell suspension, which was then used to seed the culture plates. The plates were then returned to the incubator, and cultured in accordance with the steps described above.
# Cells were seeded in 96-well plates with a density of 3,000 cells/well and cultured in accordance with the procedures described above. On the day when cell activity analysis was to be conducted, cells were first treated with various concentrations of the triterpenoids of the present disclosure, imatinib or gefitinib for at least 48 hrs, before subjecting them to MTT assay.
# (§2) 50 μL of the MTT stock solution (5 mg MTT dissolved in 1 ml of sterile PBS) was added to each well, and 50 μL of the MTT stock solution was added to 500 μL of medium alone and used as a negative control. Each sample was incubated at 37° C. for 4 hours. Aliquots (450 μl) from each sample were taken to a new well of 48-well culture plate, adding […], DMSO, mixing thoroughly using the pipette and reacted at 37° C. for 20 min and absorbance was measured at 570 nm.
# Results are summarized in Tables 1 to 3, and FIGS. 3 and 4.
# If no significance existed between the expected and observed values, the effect is termed“additivity (p>0.05)”. […] The expected value was determined by multiplying the survival rate of each drug in specific dose. The obtained value and value of each survival rate were measured by MMT assay (FIG. 3 and FIG. 4).
# [2] = test system: ovarian cancer cells (i.e., ES-2 cells); test: MTT assay of cell activity, ES-2 cells; conditions: treated at least 48 hrs
# Method: as §1, with “The suspended cells were harvested and 2 mL fresh culture media were added therein to neutralize any remaining activity of trypsin. Cell density was adjusted by adding appropriate amounts of culture medium to the cell suspension, which was then used to seed the culture plates. The plates were then returned to the incubator, and cultured in accordance with the steps described above.” left out
# as §2, with “Each sample was incubated at 37° C. for 4 hours.” left out
# The effects of the TN-GL-01 composition of example 1.1 on ovarian cancer cells (i.e., ES-2 cells) were evaluated by MTT assay in accordance with procedures described in the “Material and Methods” section.
# [3] = test system: galectin-1; test: Western blot analysis of galectin-1 expression in ES-2 cells; conditions: western blot (FIG. 2)
# Method: Samples were respectively subjected to SDS-PAGE, transferred to PVDF membranes. These blots were blocked with 5% nonfat milk powder in TBS-0.1% Tween-20 for 30 minutes, followed by incubation with primary antibodies at 4° C. overnight and then horseradish peroxidase-conjugated secondary antibodies (Amersham Biosciences, Piscataway). Imaging of bands was performed using Pierce ECL Western Blotting Substrate (Thermo Fisher Scientific) and ImageQuant LAS-4000 (GE Healthcare).
# In this example, the effects of TN-GL-01 composition on the expression of galectin-1 in ERK (extracellular-signal-regulated kinase) pathway was investigated via western blot analysis. […] Thus, it was concluded that the present TN-GL-01 composition exerted its function through suppression of galectin-1.
structure (smiles),measurement,setting,value
"CC(=O)O[C@H]1C(=O)[C@@]2(C)[C@H]([C@H](OC(=O)c3ccccc3)[C@]3(O)C[C@H](OC(=O)[C@H](O)[C@@H](NC(=O)c4ccccc4)c4ccccc4)C(C)=C1C3(C)C)[C@]1(OC(C)=O)CO[C@@H]1C[C@@H]2O [Paclitaxel, paclitaxel]",Cell survival rate of the single drug,"[1]; ARH-77, Table 2, Paclitaxel 62.5 nM alone",0.68
same,Cell survival rate of the single drug,"[1]; ARH-77, Table 2, Paclitaxel 125 nM alone",0.50
same,Cell survival rate of the single drug,"[1]; ARH-77, Table 3, Paclitaxel 40 μM alone",0.65
"CC(=O)O[C@@H](C/C=C(\C)C(=O)O)[C@@H](C)[C@H]1C[C@H](OC(C)=O)[C@@]2(C)C3=CC[C@H]4C(C)(C)[C@H](OC(C)=O)CC[C@]4(C)C3=CC[C@]12C [GAT, ganoderic acid T]",50% inhibition of ES-2 cells (IC50),[2],24.5 mg/L
same,expression of galectin-1,[3],effective in suppressing the expression of galectin-1
"C/C(=C/CC[C@@H](C)[C@H]1CC[C@@]2(C)C3=CC[C@H]4C(C)(C)C(=O)CC[C@]4(C)C3=CC[C@]12C)C(=O)O [GAS, ganoderic acid S]",50% inhibition of ES-2 cells (IC50),[2],58.3 mg/L
same,expression of galectin-1,[3],effective in suppressing the expression of galectin-1
"COc1cc([C@@H]2c3cc4c(cc3[C@@H](O[C@@H]3O[C@@H]5CO[C@@H](C)O[C@H]5[C@H](O)[C@H]3O)[C@H]3COC(=O)[C@H]23)OCO4)cc(OC)c1O [Etoposide, etoposide]",IC50,[1],0.415 µM
"N.N.[Cl][Pt][Cl] [Cisplatin, cisplatin]",Cell survival rate of the single drug,"[1]; ARH-77, Table 2, Cisplatin 3 μM alone",0.65
same,Cell survival rate of the single drug,"[1]; ARH-77, Table 3, Cisplatin 3 μM alone",0.69
"COc1cccc2c1C(=O)c1c(O)c3c(c(O)c1C2=O)C[C@@](O)(C(=O)CO)C[C@@H]3O[C@H]1C[C@H](N)[C@H](O)[C@H](C)O1 [Doxorubicin, doxorubicin]",Cell survival rate of the single drug,"[1]; ARH-77, Table 2, Doxorubicin 100 nM alone",0.58
same,Cell survival rate of the single drug,"[1]; ARH-77, Table 3, Doxorubicin 250 nM alone",0.66
same,Cell survival rate of the single drug,"[1]; ARH-77, Table 3, Doxorubicin 500 nM alone",0.66
same,IC50,[1]; Homo sapiens,0.099 µM
